The experiment has as its system MDA-MB-468 breast. Kind of experiment: DTP human tumour cell line panel, 48 h.

SMILES strings stand for the structures. Several values for one entry are separate records, joined by “and”; a condition that tells them apart may be missing. Equal values may be shown once.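 Tested at 5 concentrations; 48 h exposure; 96-well plates; endpoints linearly interpolated, else capped at highest concentration. GI50 marks 50% less growth. TGI: concentration producing complete growth inhibition.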

One may read the GI50 as the concentration that inhibits growth by half. As a reminder, the TGI is the concentration giving total growth inhibition. Read a low TGI as more potent growth arrest.

As to `Cc1cc(NCc2cc(Nc3ccnc4cc(Cl)ccc34)ccc2F)nc(N2CCN(C)CC2)n1`, the GI50 is 1.7 µM and the TGI was found to be 3.52 µM.

As for `CC(C)COCC(CN(Cc1ccccc1)c1ccccc1)N1CCCC1` (configuration not stated), the GI50 was 1.82 µM and the total growth inhibition concentration (TGI) stood at 6.56 µM.

Consider `COc1cccc(OCCCN)c1-c1cc(Nc2cnc(C#N)cn2)n[nH]1`, for which the GI50 was 0.0407 µM and the TGI is 2.04 µM.

As for `N#Cc1c(-c2cccs2)cc(-c2cnccn2)nc1SCC(=O)N/N=C/c1ccccc1`, the GI50 is 3.9 µM and the TGI amounted to 13.9 µM.

Turning to `COc1ccc(S(=O)(=O)Nc2cc(/C=C\c3cc(OC)c(OC)c(OC)c3)ccc2OC)cc1`, the GI50 was 0.168 µM and the TGI is above 100 µM.

For `CN(C)CC1C(=O)O[C@H]2[C@H]1CC/C(COC(=O)c1cc3ccccc3[nH]1)=C\CC[C@@]1(C)O[C@@H]21` (some centres not stated), the GI50 is 1.44 µM and the TGI was 3.14 µM.

Consider `C=C(C)[C@@H]1CC[C@]2(C)[C@H](CC=C3[C@@H]4[C@@H](C)[C@H](C)CC[C@]4(C(N)=O)CC[C@]32C)[C@@]1(C)CCC#N`, for which the GI50 is 3.15 µM and the TGI turned out to be 12.8 µM.

With `CCN1C(=O)N(c2ccccc2)C2NC(=S)N(/N=C/C=C/c3ccccc3)C21` (configuration not stated), the GI50 is 0.347 µM and the TGI is above 100 µM.

On to `COc1ccc(/C=C(\C#N)n2nnc3ccccc32)cc1`, for which the GI50 was 0.272 µM and the TGI was found to be 4.1 µM.

As to `N#CC1=C(N)Oc2c(sc3c(Br)cccc23)C1c1ccc(Br)cc1` (configuration not stated), the GI50 is 0.763 µM and the TGI worked out at 11.4 µM.

With `O=C(c1ccccc1)C(Br)C(Br)c1cccc([N+](=O)[O-])c1` (configuration not stated), the GI50 is 1.47 µM and the TGI turned out to be 3.08 µM.

Take `C=C1C(=O)O[C@H]2[C@H]1CCC(/C=N/c1ncc(Br)cc1N)=C\CC[C@@]1(C)O[C@@H]21`: the GI50 is 1.2 µM and the TGI was 3.91 µM.

Consider `COc1cc(NC(=O)CSc2nc3ccc(C)cc3c(=O)n2Cc2ccccc2)cc(OC)c1OC`, for which the GI50 is 4.11 µM and the TGI was 68.1 µM.

For the compound `COc1ccc(NC(=O)COCCOCCNC[C@@H]2C(=O)O[C@H]3[C@H]2CC/C(COC(=O)OC/C2=C/CC[C@@]4(C)O[C@H]4[C@H]4OC(=O)[C@@H](CN(C)C)[C@@H]4CC2)=C\CC[C@@]2(C)O[C@@H]32)c(O)c1C(N)=O`, the GI50 was 3.04 µM and the TGI was 10.8 µM.

Regarding `CC(=C(c1ccc(OCCN2CCCC2)cc1)c1ccc(OCCN2CCCC2)cc1)c1ccc(Cl)cc1`, the GI50 is 2.37 µM and the TGI amounted to 5.01 µM.

Turning to `OC(CNCC1CCCO1)Cn1c2ccc(Cl)cc2c2cc(Cl)ccc21` (configuration not stated), the GI50 was 1.65 µM and the TGI stood at 3.2 µM.

For `O=C1C=CC[C@H](/C=C/c2ccccc2)O1`, the GI50 was 1.94 µM and the TGI was found to be 11.5 µM.

In the case of `Nc1nc(N)c2c(n1)NC(c1ccc(F)cc1)C1CCc3ccccc3C1=N2` (configuration not stated), the GI50 is 1.43 µM and the total growth inhibition concentration (TGI) amounted to 6.7 µM.

For the compound `COc1cc(Cl)cc(-c2nn(-c3cccc(NC(=O)Nc4cc(C(F)(F)F)cc(C(F)(F)F)c4)c3)cc2-c2ccncc2)c1`, the 50% growth inhibitory concentration (GI50) is 0.349 µM and the TGI is 3.15 µM.

For the compound `COc1ccc(/C(=N\O)c2cc(C)c(OC)c(C)c2)cc1O`, the GI50 is 0.0146 µM and the total growth inhibition concentration (TGI) was above 100 µM.

Take `Nc1nc2n[nH]nc2c(=O)[nH]1`: the GI50 is 0.0817 µM and the TGI amounted to 0.792 µM.

On to `COc1cc(/C=N/NC(=O)c2cnn3c2NC(c2ccccc2)C3)ccc1Oc1ccccc1` (configuration not stated), for which the GI50 was 0.648 µM and the concentration for total growth inhibition (TGI) turned out to be 5.72 µM.

With `COc1cc2c(cc1OCCCCCOc1ccc(-n3c(C)nc4ccccc4c3=O)cc1)N=C[C@@H]1CCCN1C2=O`, the GI50 was 0.168 µM and the TGI was found to be 0.462 µM.

For the compound `CCCCCCCCCCC(C(O)c1ccccc1)N1CCCCC1` (configuration not stated), the GI50 was 1.58 µM and the TGI worked out at 3.09 µM.

For `O=C(Nc1ccc2[nH]c(=S)sc2c1)Nc1ccccc1F`, the GI50 is 17.7 µM and the concentration for total growth inhibition (TGI) was above 100 µM.

`CCN1Cc2c(ccc(F)c2C#N)O[C@@H](C)CNC(=O)c2c(N)nn3ccc1nc23`: the GI50 was 12.5 µM and the TGI was 34.3 µM.

With `Clc1ccc2nnnn2n1`, the GI50 is 5.06 µM and the TGI was 25.1 µM.

Turning to `COC(=O)C1CCCN1C(=O)[C@@H]1CCCN1C(=O)[C@H](Cc1c[nH]c2ccccc12)NC(=S)Nc1cc(C(F)(F)F)cc(C(F)(F)F)c1` (some centres not stated), the GI50 was 1.78 µM and the total growth inhibition concentration (TGI) came out at 4.64 µM.

Take `CCC[CH2][Sn]([CH2]CCC)([CH2]CCC)[O]C(=O)c1ccc(Cl)cc1Cl`: the GI50 was 0.133 µM and the TGI worked out at 0.274 µM.

Regarding `Oc1ccccc1CNCC12CC3CC(CC(C3)C1)C2`, the GI50 was 12.8 µM and the total growth inhibition concentration (TGI) was determined as 31.7 µM.

With `COc1cccc2c1C(=O)c1c(O)c3c(c(O)c1C2=O)C[C@@](O)(C(=O)CO)C[C@@H]3O[C@H]1C[C@H](N)[C@@H](O)[C@H](C)O1`, the GI50 was 0.094 µM and the TGI worked out at 0.304 µM.

`COC(=O)CCC1CCC(c2cc(F)ccc2F)(S(=O)(=O)c2ccc(Cl)cc2)CC1` (configuration not stated): the GI50 was 16.3 µM and the TGI was above 100 µM.

For the compound `CC(=O)c1cccc(Nc2nc3ccc(Cl)cc3c3[nH]c4ccccc4c23)c1`, the GI50 is 2.84 µM and the concentration for total growth inhibition (TGI) turned out to be 96.8 µM.

As to `COc1cc(/C=C/C(=O)c2c(C)nc3ccccc3c2/C=C/c2ccc(C)cc2)cc(OC)c1OC`, the GI50 was 1.88 µM and the TGI came out at 4.26 µM.

Take `CC1(O)CC(c2nc(-c3ccc4ccc(-c5ccccc5)nc4c3)c3c(N)nccn23)C1` (configuration not stated): the GI50 is 3.02 µM and 2.9 µM; the TGI was 12.8 µM and > 10 µM.

For the compound `COc1ccccc1N1CCN(CCc2c[nH]c3cc4c(cc23)OCO4)CC1`, the GI50 was 15.8 µM and the TGI was 44.5 µM.

(Values after PubChem BioAssay (NCI).)
